Source: Sander's compilation of Henry's law constants (doi:10.1021/ac00058a023)

assay: Henry solubility constant Hcp at 298.15 K (mol/(m3 Pa)); details: reference: Li and Carr (1993)

SMILES | Henry solubility constant Hcp
ClC(Cl)C(Cl)Cl [1,1,2,2-tetrachloroethane] | 0.029
Cc1ccccc1C [1,2-dimethylbenzene] | 0.0019
Cc1cc(C)cc(C)c1 [1,3,5-trimethylbenzene] | 0.0013
Cc1cccc(C)c1 [1,3-dimethylbenzene] | 0.0013
Cc1ccc(C)cc1 [1,4-dimethylbenzene] | 0.0013
CCCCCCO [1-hexanol] | 0.64
CCCCCO [1-pentanol] | 0.84
CCCO [1-propanol] | 1.4
CC(C)C#N [2-methylpropanenitrile] | 0.094
CCCCCCCC(C)=O [2-nonanone] | 0.041
Cc1cccc([N+](=O)[O-])c1 [3-nitrotoluene] | 0.28
CC(C)c1ccccc1 [(2-propyl)-benzene] | 0.00091
ClCc1ccccc1 [(chloromethyl)-benzene] | 0.012
c1ccccc1 [benzene] | 0.0017
Brc1ccccc1 [bromobenzene] | 0.0044
CCCCc1ccccc1 [butylbenzene] | 0.00071

SMILES | Henry solubility constant Hcp
Clc1ccccc1 [chlorobenzene] | 0.0025
CC(C)OC(C)C [diisopropyl ether] | 0.0042
CCCOCCC [dipropyl ether] | 0.003
CC#N [ethanenitrile] | 0.46
CCO [ethanol] | 1.9
CCOc1ccccc1 [ethoxybenzene] | 0.017
CCc1ccccc1 [ethylbenzene] | 0.0013
Fc1ccccc1 [fluorobenzene] | 0.0011
Ic1ccccc1 [iodobenzene] | 0.0076
COc1ccccc1 [methoxybenzene] | 0.032
Cc1ccccc1 [methylbenzene] | 0.0016
CCCCCCCC=O [octanal] | 0.021
CCCCC#N [pentanenitrile] | 0.14
CCCc1ccccc1 [propylbenzene] | 0.00093
ClC(Cl)(Cl)Cl [tetrachloromethane] | 0.00023
